According to patent US20260217701A1, “SELECTIVE BET INHIBITORS AND USES THEREOF” (Tay Therapeutics Limited, priority 2022, published 2026):
Several values for one entry are separate records, joined by “and”; a condition that tells them apart may be missing. Identical values can stand only once. Like-named read-outs stand apart in the source and are kept apart here.

Columns and labels:
[1] = Dog PK study #2 (Compound A IV, HPBCD formulation); format: in vivo, beagle dogs
Description: For Dog PK study #2, a solution of Compound A was prepared in HPBCD (20% solution w/v)/DMSO (99/1) with a concentration of 0.5 mg/mL (Table 2B). The Compound A solution was administered to animals intravenously (IV), and animals were monitored over a 24 h period (Table 3C). Body weight was recorded prior to dosing, and detailed clinical observations were made prior to dosing and throughout the study, as needed.
Blood samples (~0.3 mL) were collected according to a schedule (shown below) by venipuncture of peripheral veins except for the dosing vein, and EDTA-K2 was used as anticoagulant. Within 30 minutes of collection, the samples were centrifuged at approximately 2000 times g-force for 10 minutes at 4° C. to obtain blood plasma. The plasma samples were immediately divided into two aliquots (~75 μL each), transferred to a cryogenic vial, and stored in a freezer at −75+15° C. prior to analysis.
Blood samples were collected at 0.083, 0.25, 0.5, 1, 2, 4, 8, and 24 h following the initial dosing (0 h).
The concentration of Compound A in the blood plasma was determined through liquid chromatography-mass spectrometry (LC-MS). The experiments were conducted on a Shimadzu HPLC(DGU-20A5R; LC-30AD; SIL-30AC; Rack Changer II; CTO-30A; and CBM-20A) and AB API 5500 LC/MS/MS instrument with an Agilent Poroshell EC-C18 4 μm (50×2.1 mm) column. A gradient of 95% water (0.1% formic acid)/95% acetonitrile (0.1% formic acid) was used as the mobile phase. The sample injection volume was 4 μL, and the flow rate was 0.6 mL/min. The gathered data were used for pharmacokinetic calculations using T1/2, CO, AUClast, AUCinf, MRTinf, Cl, Vss, and Number of Points for Regression as parameters.
The desired serial concentrations of working solutions were achieved by diluting stock solution of analyte with 50% acetonitrile in water solution. 5 μL of working solutions (5, 10, 20, 50, 100, 500, 1000, 5000, 10000 ng/ml) were added to 50 µL of the blank Beagle Dogs plasma to achieve calibration standards of 0.5~1000 ng/ml (0.5, 1, 2, 5, 10, 50, 100, 500, 1000 ng/ml) in a total volume of 55 μL. Five quality control samples at 1 ng/ml, 2 ng/mL, 5 ng/ml, 50 ng/mL and 800 ng/mL for plasma were prepared independently of those used for the calibration curves. These QC samples were prepared on the day of analysis in the same way as calibration standards.
55 μL standards, 55 μL QC samples and 55 μL unknown samples (50 μL plasma with 5 μL blank solution) were added to 200 μL of acetonitrile containing IS mixture (verapamil) for precipitating protein respectively. Then the samples were vortexed for 30 s. After centrifugation at 4° C., 3900 rpm for 15 min, the supernatant was diluted 3 times with water. 4 μL of diluted supernatant was injected into the LC/MS/MS system for quantitative analysis.

[2] = system: gastrointestinal mucosa / goblet cells; assay: Gastrointestinal histopathology (Dog PK Study #4); format: in vivo; settings: healthy beagle dogs; 10 mg/kg; Day 15
Description: Oral pan-BD BET inhibitors are known to negatively impact gastrointestinal mucosa through goblet cell toxicity, leading to related gastrointestinal adverse events in the clinic (Faivre et al., Nature, 578:306-310 (2020)). Therefore, the impact of Compound A on gastrointestinal toxicity and the mucosa was assessed in healthy beagle dogs as part of Dog PK Study #4, outlined in Experimental Method B.
Following completion of Dog PK study #4 on Day 15, animals were euthanized, and the large and small intestines were collected and fixed in 10% neutral buffered formalin. The tissues were then removed from the fixative, processed, embedded in paraffin, sectioned, and stained with hematoxylin and eosin, prior to microscopic examination.

[3] = IV 1 mg/kg, HPBCD formulation, individual animals, 1 mg/kg
[4] = IV 1 mg/kg, HPBCD formulation, mean
[5] = beagle, dog, plasma, iv, 1 mg/kg, IV 1 mg/kg, HPBCD formulation, individual animals, read-out: Plasma concentration
[6] = beagle, dog, plasma, iv, 1 mg/kg, IV 1 mg/kg, HPBCD formulation, mean, read-out: Average plasma concentration
[7] = beagle, dog, plasma, iv, 1 mg/kg, IV 1 mg/kg, HPBCD formulation, mean

Question: Which results are given for `Cn1cc(-c2ccccc2)c(-c2cn(C)c(=O)c3[nH]c(-c4cnn(C(F)(F)F)c4)cc23)cc1=O` [Compound A, 6-methyl-4-(1-methyl-2-oxo-5-phenyl-1,2-dihydropyridin-4-yl)-2-(1-(trifluoromethyl)-1H-pyrazol-4-yl)-1,6-dihydro-7H-pyrrolo[2,3-c]pyridin-7-one]?
Answer: clinical observations, HPBCD vs propylene glycol formulation ([1]; IV): fewer clinical observations; AUClast [1, 3]: 4409 ng·h/mL and 1577 ng·h/mL and 1732 ng·h/mL; AUClast/D [1, 3]: 4409 (ng · h/mL)/(mg/kg) and 1577 (ng · h/mL)/(mg/kg) and 1732 (ng · h/mL)/(mg/kg); AUClnf [1, 3]: 4854 ng·h/mL and 1674 ng·h/mL and 2083 ng·h/mL; AUC—%Extrap—obs [1, 3]: 9.17% and 5.83% and 16.8%; C0 [1, 3]: 476 ng/mL and 410 ng/mL; CI_obs [1, 3]: 3.43 mL/min/kg and 9.95 mL/min/kg and 8.00 mL/min/kg; MRTlnf—obs [1, 3]: 9.30 h and 6.26 h and 11.8 h; T1/2 [1, 3]: 6.45 h and 10.1 h; Vss—obs [1, 3]: 1.91 L/kg and 3.74 L/kg and 5.67 L/kg; AUClast/D [1, 4]: 2573 (ng · h/mL)/(mg/kg); AUC—%Extrap—obs [1, 4]: 10.6%; CI_obs [1, 4]: 7.13 mL/min/kg; MRTlnf—obs [1, 4]: 9.1 h; concentration at 0.083 h [1, 5]: 479 ng/mL; concentration at 0.083 h [1, 6]: 446 ng/mL; concentration at 0.25 h [1, 5]: 540 ng/mL; concentration at 0.25 h [1, 6]: 450 ng/mL; concentration at 0.5 h [1, 5]: 405 ng/mL; concentration at 0.5 h [1, 6]: 328 ng/mL; concentration at 1 h [1, 5]: 331 ng/mL; concentration at 1 h [1, 6]: 269 ng/mL; concentration at 2 h [1, 5]: 323 ng/mL; concentration at 2 h [1, 6]: 232 ng/mL; concentration at 4 h ([1]; beagle, dog, plasma, iv, 1 mg/kg, IV 1 mg/kg, HPBCD formulation, 4 h, mean): 176 ng/mL; concentration at 8 h ([1]; beagle, dog, plasma, iv, 1 mg/kg, IV 1 mg/kg, HPBCD formulation, 8 h, mean): 100 ng/mL; concentration at 24 h ([1]; beagle, dog, plasma, iv, 1 mg/kg, IV 1 mg/kg, HPBCD formulation, 24 h, mean): 26 ng/mL; half-life ([1]; beagle, dog, plasma, iv, 1 mg/kg, IV 1 mg/kg, HPBCD formulation, individual animals): 427 min; C0 ([1]; beagle, dog, plasma, iv, 1 mg/kg, IV 1 mg/kg, HPBCD formulation, individual animals, read-out: C0): 479 ng/mL; AUC [1, 7]: 2870 ng·h/mL; AUC(0-t) [1, 7]: 2570 ng·h/mL; half-life [1, 7]: 474 min; C0 ([1]; beagle, dog, plasma, iv, 1 mg/kg, IV 1 mg/kg, HPBCD formulation, mean, read-out: C0): 455 ng/mL; Vd ([1]; beagle, dog, plasma, iv, 1 mg/kg, IV 1 mg/kg, HPBCD formulation, mean, read-out: Vss—obs): 3.77 L/kg; Effect on gastrointestinal villus morphology or goblet cell number [2]: no deleterious effect
